Results on 36 compounds are retold here after ChEMBL document CHEMBL1149949, “Nonpeptidic HIV protease inhibitors: 3-(S-benzyl substituted)-4-hydroxy-6-(phenyl substituted)-2H-pyran-2-one with an inverse mode of binding” (Bioorg Med Chem Lett, 1996).

In this assay the target is Human immunodeficiency virus type 1 protease (Human immunodeficiency virus 1, UniProt Q72874). Briefly: In vitro inhibitory activity against HIV-1 protease(PR).

A value given as a limit tells only on which side of the number the result lay.

As usually defined, the IC50 is the concentration that gives 50% inhibition. The low end stands for greater potency in that assay, the high end for weaker potency in that assay. In turn, `Cc1cccc(CSc2c(O)cc(-c3ccccc3)oc2=O)c1` returned an IC50 of 8540 nM.
The same measure for `Cc1ccccc1-c1cc(O)c(SCc2ccccc2)c(=O)o1`: 14200 nM; for `CC(C)OC(=O)c1ccccc1CSc1c(O)cc(-c2ccccc2)oc1=O`: 34 nM; for `O=c1cc(-c2ccccc2Cl)oc(O)c1SCc1ccccc1`: 2540 nM.
Compound `CC(C)(C)NC(=O)c1ccccc1CSc1c(O)cc(-c2ccccc2)oc1=O` displayed an IC50 of 190 nM.
The compound `O=c1cc(-c2cccc(O)c2)oc(O)c1SCc1ccccc1` showed an IC50 of 1190 nM.
As for `COC(=O)c1ccccc1CSc1c(O)cc(-c2ccccc2)oc1=O`, the figure is 1000 nM.
The same measure for `Cc1cccc(-c2cc(O)c(SCc3ccccc3)c(=O)o2)c1`: 860 nM; for `O=C(O)c1cccc(CSc2c(O)cc(-c3ccccc3)oc2=O)c1`: 6150 nM.
The same measure for `O=c1cc(-c2ccc3c(c2)OCCO3)oc(O)c1SCc1ccccc1`: 790 nM; for `O=c1cc(-c2ccccc2)oc(O)c1SCc1ccc2c(c1)OCCO2`: 3420 nM.
`COc1ccc(-c2cc(O)c(SCc3ccccc3)c(=O)o2)cc1` yielded an IC50 of 1630 nM.
The same measure for `Cc1cc(-c2cc(O)c(SCc3ccccc3)c(=O)o2)cc(C)c1O`: 250 nM.
Compound `O=C(OC1CCCC1)c1ccccc1CSc1c(O)oc(-c2ccccc2)cc1=O` gave an IC50 of 50 nM. Against the preceding compound, the IC50 is about 5-fold lower.
On to `O=C(OC1CCCCC1)c1ccccc1CSc1c(O)oc(-c2ccccc2)cc1=O`, for which the IC50 stood at 1200 nM.
In turn, `O=c1cc(-c2cccc(C(F)(F)F)c2)oc(O)c1SCc1ccccc1` gave an IC50 of 600 nM.
Take `CC(C)COC(=O)c1ccccc1CSc1c(O)cc(-c2ccccc2)oc1=O`: the IC50 was 619 nM.
`O=c1cc(-c2ccc(O)cc2)oc(O)c1SCc1ccccc1`: the IC50 was determined as 690 nM.
`O=C(O)c1ccc(CSc2c(O)cc(-c3ccccc3)oc2=O)cc1` showed an IC50 of 10200 nM.
On to `O=c1cc(-c2cccc(OC(F)(F)F)c2)oc(O)c1SCc1ccccc1`, for which half-maximal inhibition (IC50) required 2140 nM.
As for `COC(=O)c1ccc(CSc2c(O)cc(-c3ccccc3)oc2=O)cc1`, the figure is > 10000 nM; as for `O=C(O)c1ccc(-c2cc(O)c(SCc3ccccc3)c(=O)o2)cc1`, 360 nM.
The same measure for `O=c1cc(-c2cccc(Cl)c2)oc(O)c1SCc1ccccc1`: 690 nM.
The same measure for `COC(=O)c1ccc(-c2cc(O)c(SCc3ccccc3)c(=O)o2)cc1`: > 100000 nM; for `COc1ccc(-c2cc(O)c(SCc3ccccc3)c(=O)o2)cc1C`: 740 nM; for `COc1cccc(-c2cc(O)c(SCc3ccccc3)c(=O)o2)c1`: 990 nM.
`O=C(O)c1ccccc1CSc1c(O)cc(-c2ccccc2)oc1=O` came in with an IC50 of 24800 nM. Against the preceding compound, the IC50 is about 25-fold higher.
`Cc1ccccc1CSc1c(O)cc(-c2ccccc2)oc1=O` came in with an IC50 of 5370 nM.
The same measure for `O=c1cc(-c2ccccc2)oc(O)c1SCc1ccccc1`: 1700 nM.
For `Cc1ccc(-c2cc(O)c(SCc3ccccc3)c(=O)o2)cc1`, the IC50 came out at 12300 nM.
In the case of `O=c1cc(-c2ccccc2O)oc(O)c1SCc1ccccc1`, the IC50 came to 6000 nM.
Turning to `Cc1cc(C)cc(-c2cc(O)c(SCc3ccccc3)c(=O)o2)c1`, the IC50 is 260 nM. This IC50 lies about 23-fold lower than the previous one.
The same measure for `O=c1cc(-c2cc(C(F)(F)F)cc(C(F)(F)F)c2)oc(O)c1SCc1ccccc1`: 630 nM; for `CCc1cccc(-c2cc(O)c(SCc3ccccc3)c(=O)o2)c1`: 2040 nM; for `Cc1ccc(CSc2c(O)cc(-c3ccccc3)oc2=O)cc1`: 4580 nM.
Turning to `COC(=O)c1cccc(CSc2c(O)cc(-c3ccccc3)oc2=O)c1`, half-maximal inhibition (IC50) was put at 19300 nM.
